Laboratory results taken from patent EP1369415A1, “Substituted pyrrolyl compounds for the treatment of inflammation” (G.D. SEARLE & CO., priority 1996, dated 1998).

What was measured:
[1] = Analgesia (Table I; method not described); assay type: in vivo; conditions: @ 30mg/kg body weight
[2] = system: carrageenan foot edema; experiment: Rat Carrageenan Foot Pad Edema Test; assay type: in vivo, Male Sprague-Dawley rats; conditions: @ 30mg/kg body weight; dosed orally one hour before carrageenan; foot volume three hours after injection
[3] = molecular target: COX-1 (Homo sapiens, UniProt P23219); assay type: biochemical, human or murine
Sequence of COX-1 (P23219 24-599): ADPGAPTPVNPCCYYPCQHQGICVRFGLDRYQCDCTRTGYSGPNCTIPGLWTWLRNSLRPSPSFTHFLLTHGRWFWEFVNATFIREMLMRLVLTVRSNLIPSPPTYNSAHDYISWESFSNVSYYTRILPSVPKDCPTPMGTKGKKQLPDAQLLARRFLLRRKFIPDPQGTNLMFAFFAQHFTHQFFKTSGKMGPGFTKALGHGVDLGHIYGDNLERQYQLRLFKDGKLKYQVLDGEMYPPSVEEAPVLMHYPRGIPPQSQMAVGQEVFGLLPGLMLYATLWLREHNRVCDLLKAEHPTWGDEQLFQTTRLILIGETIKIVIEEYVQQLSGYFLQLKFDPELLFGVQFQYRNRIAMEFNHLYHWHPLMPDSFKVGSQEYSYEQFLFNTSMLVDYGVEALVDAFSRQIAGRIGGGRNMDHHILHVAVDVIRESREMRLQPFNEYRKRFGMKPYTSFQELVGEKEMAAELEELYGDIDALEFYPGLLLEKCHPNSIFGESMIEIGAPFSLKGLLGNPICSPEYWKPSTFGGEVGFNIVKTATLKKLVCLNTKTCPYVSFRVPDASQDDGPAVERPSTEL

| Compound | ANALGESIA % Inhibition [1] [%] | RAT PAW EDEMA % Inhibition [2] [%] | IC50 [3] [µM] |
| --- | --- | --- | --- |
| CS(=O)(=O)c1ccc(-n2cccc2-c2ccc(F)cc2)cc1 [Example 8, 2-(4-Fluorophenyl)-1-[4-(methylsulfonyl)phenyl]-1H-pyrrole] | 47 | 56 | – |
| NS(=O)(=O)c1ccc(-n2cccc2-c2ccc(F)cc2)cc1 [Example 9, 4-[2-(4-Fluorophenyl)-1H-pyrrol-1-yl]benzenesulfonamide] | – | – | 10.4 |
